Results: US12263171B2, “7-, 8-, and 10-substituted amino triazolo quinazoline derivatives as adenosine receptor antagonists, pharmaceutical compositions and their use” (Merck Sharp & Dohme LLC, priority 2018, dated 2025)

Legend:
[1] = molecular target: human A2b adenosine receptor (Homo sapiens (Human), UniProt P29275); assay: A2b radioligand filtration binding assay (tritiated proprietary A2b antagonist, HEK293 membranes); details: for IC50: unstarred values: radioligand binding; for A2B binding % inh. @ 10000 nM: unstarred
In short: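 Displacement of a tritiated proprietary A2b antagonist from membranes of HEK293 cells recombinantly expressing human A2b receptor, measured by filtration and scintillation counting. Percent effect was normalized to total and non-specific binding and fitted with a 4-parameter logistic to give IC50.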

[2] = molecular target: human A2a adenosine receptor (Homo sapiens (Human), UniProt P29274); assay: A2a receptor affinity radioligand binding assay ([3H] SCH58261, membranes from HEK293 or CHO cells); details: unstarred values: radioligand binding
In short: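 Displacement of tritiated SCH58261 (working dilution 4 nM) from recombinant human A2a receptor membranes (HEK293 or CHO), 60 min at room temperature in Tris pH 7.4/MgCl2 buffer after 15–30 min compound preincubation. Scintillation counting after filtration; normalized percent effect fitted 4-parameter logistic for IC50.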

Sequence of human A2b adenosine receptor (P29275 whole entry): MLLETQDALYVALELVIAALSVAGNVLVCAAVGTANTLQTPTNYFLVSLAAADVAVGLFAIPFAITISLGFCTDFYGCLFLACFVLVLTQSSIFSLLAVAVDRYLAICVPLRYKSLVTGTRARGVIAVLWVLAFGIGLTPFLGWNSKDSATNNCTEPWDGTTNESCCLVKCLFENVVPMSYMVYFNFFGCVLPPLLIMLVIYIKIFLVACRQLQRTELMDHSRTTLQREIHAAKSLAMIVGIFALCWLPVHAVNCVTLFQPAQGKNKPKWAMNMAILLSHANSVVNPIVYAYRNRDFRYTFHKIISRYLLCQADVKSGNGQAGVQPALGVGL
Sequence of human A2a adenosine receptor (P29274 whole entry): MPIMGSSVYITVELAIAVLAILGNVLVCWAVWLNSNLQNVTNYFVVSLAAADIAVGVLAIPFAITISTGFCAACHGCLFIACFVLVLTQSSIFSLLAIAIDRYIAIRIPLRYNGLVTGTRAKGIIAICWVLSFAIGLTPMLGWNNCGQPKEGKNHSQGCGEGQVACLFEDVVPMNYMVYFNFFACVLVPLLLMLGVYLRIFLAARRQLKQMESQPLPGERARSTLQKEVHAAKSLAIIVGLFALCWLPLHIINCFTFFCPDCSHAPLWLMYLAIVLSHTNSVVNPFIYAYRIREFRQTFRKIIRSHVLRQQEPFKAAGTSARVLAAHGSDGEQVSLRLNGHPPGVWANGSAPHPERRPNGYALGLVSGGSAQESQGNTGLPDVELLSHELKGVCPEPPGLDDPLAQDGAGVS

| IC50 [1] [nM] | IC50 [2] [nM] | A2B binding % inh. @ 10000 nM [1] [% inh. @ 10000 nM] | SMILES |
| --- | --- | --- | --- |
| 5290 | 58.3 | – | COc1cccc2c1nc(N)n1nc([C@@H]3CCO[C@H](c4cnn(C)c4)C3)nc21 [Example 139D] |
| 758 | 1.3 | – | CCn1cc(N2C[C@H](c3nc4c5cccc(OC)c5nc(N)n4n3)CC[C@H]2C)cn1 [Example 140B] |
| – | 210 | 27 | COc1cccc2c1nc(N)n1nc(C3CC(F)CN(c4cn(CC(C)(C)O)nc4C)C3)nc21 (stereo not drawn) [Example 151, 1-(4-(3-(5-amino-7-methoxy-[1,2,4]triazolo[1,5-c]quinazolin-2-yl)-5-fluoropiperidin-1-yl)-3-methyl-1H-pyrazol-1-yl)-2-methylpropan-2-ol] |
| 189 | 0.7 | – | COc1ccc2c(c1)nc(N)n1nc([C@@H]3CCCN(c4cnn(CC5(O)CCC5)c4)C3)nc21 [Example 176] |
| 104 | 0.3 | – | COc1ccc2c(c1)nc(N)n1nc([C@@H]3CCCN(c4cnn(CC(C)(C)O)c4C)C3)nc21 [Example 181, (R)-1-(4-(3-(5-amino-8-methoxy-[1,2,4]triazolo[1,5-c]quinazolin-2-yl)piperidin-1-yl)-5-methyl-1H-pyrazol-1-yl)-2-methylpropan-2-ol] |
| 188 | 1.3 | – | COc1ccc2c(c1)nc(N)n1nc([C@@H]3CCCN(c4cnn([C@H]5C[C@@](C)(O)C5)c4)C3)nc21 [Example 182, (1S,3s)-3-(4-((R)-3-(5-amino-8-methoxy-[1,2,4]-triazolo[1,5-c]quinazolin-2-yl)piperidin-1-yl)-1H-pyrazol-1-yl)-1-methylcyclobutan-1-ol] |
| 4070 | 157 | – | COc1ccc2c(c1)nc(N)n1nc([C@@H]3CCCN(c4cnn(CC5(CF)COC5)c4)C3)nc21 [Example 183, (R)-2-(1-(1-((3-(fluoromethyl)oxetan-3-yl)methyl)-1H-pyrazol-4-yl)piperidin-3-yl)-8-methoxy-[1,2,4]triazolo[1,5-c]quinazolin-5-amine] |
| 462 | 0.4 | – | COc1ccc2c(c1)nc(N)n1nc([C@@H]3CCCN(c4cn([C@H](C)C(C)(C)O)nc4C)C3)nc21 [Example 186A] |
| 1290 | 2.8 | – | COc1ccc2c(c1)nc(N)n1nc([C@@H]3CCCN(c4cnn([C@@H]5CCC[C@H]5O)c4)C3)nc21 [Example 187A, (1R,2R)-2-(4-((R)-3-(5-amino-8-methoxy-[1,2,4]triazolo[1,5-c]quinazolin-2-yl)piperidin-1-yl)-1H-pyrazol-1-yl)cyclopentan-1-ol] |
| 44.6 | 0.7 | – | COc1ccc2c(c1)nc(N)n1nc([C@@H]3CCCN(c4cnn(C(C)(C)CO)c4)C3)nc21 [Example 188, (R)-2-(4-(3-(5-amino-8-methoxy[1,2,4]triazolo[1,5-c]quinazolin-2-yl)piperidin-1-yl)-1H-pyrazol-1-yl)-2-methylpropan-1-ol] |
| 22.7 | 2.5 | – | COc1ccc2c(c1)nc(N)n1nc([C@@H]3CCCN(c4ccc(OC(C)C)nc4)C3)nc21 [Example 192, (R)-2-(1-(6-isopropoxypyridin-3-yl)piperidin-3-yl)-8-methoxy-[1,2,4]triazolo[1,5-c]quinazolin-5-amine] |
| 9690 | 1.7 | – | COc1ccc2c(c1)nc(N)n1nc([C@@H]3C[C@@H](C)CN(c4cnn(CC(C)(C)O)c4)C3)nc21 [Example 195B] |

Continued, compound first:

| SMILES | IC50 [1] [nM] | IC50 [2] [nM] | A2B binding % inh. @ 10000 nM [1] [% inh. @ 10000 nM] |
| --- | --- | --- | --- |
| CCn1cc(N2C[C@@H](c3nc4c5cccc(OC)c5nc(N)n4n3)CC[C@@H]2C)cn1 [Example 140C] | 11.2 | 0.6 | – |
| COc1cccc2c1nc(N)n1nc([C@H]3CC[C@H](C)N(c4cn(CC(C)(C)O)nc4C)C3)nc21 [Example 145B] | 57.2 | 1.2 | – |
| COc1cccc2c1nc(N)n1nc(C3CC(F)CN(c4cnn(CC(C)(C)O)c4)C3)nc21 (stereo not drawn) [Example 149] | – | 200 | 32 |
| COc1cccc2c1nc(N)n1nc(C3CC(F)CN(c4cnn(CC5(O)CCC5)c4)C3)nc21 (stereo not drawn) [Example 150, 1-((4-(3-(5-amino-7-methoxy-[1,2,4]triazolo[1,5-c]quinazolin-2-yl)-5-fluoropiperidin-1-yl)-1H-pyrazol-1-yl)methyl)cyclobutan-1-ol] | – | 80.5 | 74 |
| COc1cccc2c1nc(N)n1nc(C3CC(F)CN(c4cnn(CC(C)(C)O)c4C)C3)nc21 (stereo not drawn) [Example 152, 1-(4-(3-(5-amino-7-methoxy-[1,2,4]triazolo[1,5-c]quinazolin-2-yl)-5-fluoropiperidin-1-yl)-5-methyl-1H-pyrazol-1-yl)-2-methylpropan-2-ol] | – | 249 | 38 |
| COc1cccc2c1nc(N)n1nc([C@@H]3CCN(c4cnn(CC5CC5)c4)C3)nc21 [Example 162, (R)-2-(1-(1-(cyclopropylmethyl)-1H-pyrazol-4-yl)pyrrolidin-3-yl)-7-methoxy[1,2,4]triazolo[1,5-c]quinazolin-5-amine] | 17.6 | 7.8 | – |
| COc1cccc2c1nc(N)n1nc(C3CCCCN(c4cn(C)nn4)C3)nc21 (stereo not drawn) [Example 175] | 23.2 | 0.1 | – |
| COc1ccc2c(c1)nc(N)n1nc([C@@H]3CCCN(c4cnn(CC(F)(F)F)c4)C3)nc21 [Example 178, (R)-8-methoxy-2-(1-(1-(2,2,2-trifluoroethyl)-1H-pyrazol-4-yl)piperidin-3-yl)-[1,2,4]triazolo[1,5-c]quinazolin-5-amine] | 2.5 | 2.1 | – |
| COc1ccc2c(c1)nc(N)n1nc([C@@H]3CCCN(c4cnn(CC(C)(C)O)c4)C3)nc21 [Example 179, (R)-1-(4-(3-(5-amino-8-methoxy-[1,2,4]triazolo[1,5-c]quinazolin-2-yl)piperidin-1-yl)-1H-pyrazol-1-yl)-2-methylpropan-2-ol] | 103 | 3.5 | – |
| COc1ccc2c(c1)nc(N)n1nc([C@@H]3CCCN(c4cn(CC(C)(C)O)nc4C)C3)nc21 [Example 180, (R)-1-(4-(3-(5-amino-8-methoxy-[1,2,4]triazolo[1,5-c]quinazolin-2-yl)piperidin-1-yl)-3-methyl-1H-pyrazol-1-yl)-2-methylpropan-2-ol] | 250 | 1 | – |
| COc1ccc2c(c1)nc(N)n1nc([C@@H]3CCCN(c4cnn([C@H](C)C(C)(C)O)c4)C3)nc21 [Example 185A] | 98.1 | 0.8 | – |
| COc1ccc2c(c1)nc(N)n1nc([C@@H]3CCCN(c4cnn([C@@H](C)C(C)(C)O)c4)C3)nc21 [Example 185B, (S)-3-(4-((R)-3-(5-amino-8-methoxy-[1,2,4]triazolo[1,5-c]quinazolin-2-yl)piperidin-1-yl)-1H-pyrazol-1-yl)-2-methylbutan-2-ol] | 116 | 1 | – |
| COc1ccc2c(c1)nc(N)n1nc([C@@H]3CCCN(c4cn([C@@H](C)C(C)(C)O)nc4C)C3)nc21 [Example 186B, (S)-3-(4-((R)-3-(5-amino-8-methoxy-[1,2,4]triazolo[1,5-c]quinazolin-2-yl)piperidin-1-yl)-3-methyl-1H-pyrazol-1-yl)-2-methylbutan-2-ol] | 323 | 0.4 | – |
| COc1ccc2c(c1)nc(N)n1nc([C@@H]3CCCN(c4cnn([C@H]5CCC[C@@H]5O)c4)C3)nc21 [Example 187B, (1S,2S)-2-(4-((R)-3-(5-amino-8-methoxy-[1,2,4]triazolo[1,5-c]quinazolin-2-yl)piperidin-1-yl)-1H-pyrazol-1-yl)cyclopentan-1-ol] | – | 406 | 16 |
| COc1ccc2c(c1)nc(N)n1nc([C@@H]3CCCN(c4cnn([C@H](C)C(C)(C)O)c4C)C3)nc21 [Example 189A, (R)-3-(4-((R)-3-(5-amino-8-methoxy[1,2,4]triazolo[1,5-c]quinazolin-2-yl)piperidin-1-yl)-5-methyl-1H-pyrazol-1-yl)-2-methylbutan-2-ol] | 228 | 0.6 | – |
| COc1ccc2c(c1)nc(N)n1nc([C@@H]3CCCN(c4cnn([C@@H](C)C(C)(C)O)c4C)C3)nc21 [Example 189B, (S)-3-(4-((R)-3-(5-amino-8-methoxy-[1,2,4]triazolo[1,5-c]quinazolin-2-yl)piperidin-1-yl)-5-methyl-1H-pyrazol-1-yl)-2-methylbutan-2-ol] | 291 | 0.7 | – |
| COc1ccc2c(c1)nc(N)n1nc([C@@H]3CCCN(c4cnc(OC(F)F)c(C)c4)C3)nc21 [Example 190, (R)-2-(1-(6-(difluoromethoxy)-5-methylpyridin-3-yl)piperidin-3-yl)-8-methoxy-[1,2,4]triazolo[1,5-c]quinazolin-5-amine] | 480 | 10.1 | – |
| COc1ccc2c(c1)nc(N)n1nc([C@@H]3CCCN(c4ccc(OC(F)F)nc4)C3)nc21 [Example 191, (R)-2-(-(6-(difluoromethoxy)pyridin-3-yl)piperidin-3-yl)-8-methoxy-[1,2,4]triazolo[1,5-c]quinazolin-5-amine] | 18.4 | 2.5 | – |
| COc1ccc2c(c1)nc(N)n1nc([C@@H]3CCCN(c4ccc(C(C)=O)cc4)C3)nc21 [Example 193, (R)-1-(4-(3-(5-amino-8-methoxy-[1,2,4]-triazolo[1,5-c]quinazolin-2-yl)piperidin-1-yl)phenyl)ethan-1-one] | 130 | 2.2 | – |
| COc1ccc2c(c1)nc(N)n1nc([C@@H]3CCCN(c4ncn(CC(C)(C)O)n4)C3)nc21 [Example 194, (R)-1-(3-(3-(5-amino-8-methoxy-[1,2,4]triazolo[1,5-c]quinazolin-2-yl)piperidin-1-yl)-1H-1,2,4-triazol-1-yl)-2-methylpropan-2-ol] | 528 | 6.7 | – |
| COc1ccc2c(c1)nc(N)n1nc([C@H]3C[C@@H](C)CN(c4cnn(CC(C)(C)O)c4)C3)nc21 [Example 195A] | 5810 | 35.9 | – |
